# Like-named read-outs stand apart in the source and are kept apart here.
# Experiments:
# [1] = test system: human hepatoma cell line HepG-2; assay: MTT growth inhibition of HepG-2 cells; assay type: cell-based; conditions: HepG-2, MTT, read-out: IC50 (μM) Tumor cells HepG-2
# Description: (§1) The drugs were formulated into a stock solution in DMSO, and the concentration of the stock solution was 20 mmol (used within 4 hours). In the experiment, the work solution of the drugs was diluted with RPM11640 medium containing 10% calf serum under aseptic condition, to a final concentration of 80 μM. The drug concentrations were increased by 2 times (1.25-20 μM).
# (§2) The DU145 cell in logarithmic growth phase were selected, centrifuged, counted, and formulated into a cell suspension (2.5×10^4/ml) with RPM11640 medium containing 10% calf serum. The cell suspension were inoculated into 96-well plates at a density of 5000 cells/200 μl per well, incubated for 24 hours at 37° C., 5% CO2. According to the above concentration of the drug, the cells were inoculated to 6 groups (including one control group), with 8 wells per group. After incubating for 72 hours, the viability of cells was measured by MTT assay. The absorbance value (A) was measured with detection wavelength at 540 nm, reference wavelength at 630 nm. The inhibitory rate (I) was calculated by the following equation, where T was the absorbance value of the experimental groups, and C was the absorbance value of the blank control group: I=(1−T/C)×100%
# (§3) The regression equation was calculated by the concentration-inhibitory rate curve, to obtain 50% and 90% inhibition concentration (IC50 and IC90, μM).
# (§4) 1. Tumor Cells: human hepatoma cell lines 7701 QGY and HepG-2, human lung adenocarcinoma cell line A549, human chronic myelocytic leukemia cell line K562, human leukemia cell line CEM and mouse melanoma cell line K111.
# (§5) 2. Using the methods described in example 2, the biological activity of a portion of newly synthesized 5- or 7-azaindirubin derivatives and 5- or 7-azaisoindigo derivatives (20 compounds) for inhibiting various tumor cells growth were determined.
# [2] = test system: human leukemia cell line CEM; assay: MTT growth inhibition of CEM cells; assay type: cell-based; conditions: read-out: IC50 (μM) Tumor cells CEM
# Description: as §1, §2, §3, §4, §5
# [3] = Solubility assay in solvents; assay type: physicochemical; conditions: for solubility in Acetone / solubility in deionized water / solubility in ethanol / solubility in methanol / solubility in petroleum ether (boiling range: 60~90° C.) / solubility in trichlormethane: 5 mg in 2 ml solvent, room temperature (20° C.); for change of lipid solubility / change of water solubility: 129 relative to 91, 91 relative to indirubin
# Description: Testing Methods: 5 mg of the compound no. 129 and 91 were respectively added into 2 ml solvent at room temperature (20° C.), and stirred to dissolve.
# [4] = test system: mouse melanoma cell line K111; assay: MTT growth inhibition of K111 cells; assay type: cell-based; conditions: Klll, read-out: IC50 (μM) Tumor cells Klll
# Description: as §1, §2, §3, §4, §5
# [5] = test system: human chronic myelocytic leukemia cell line K562; assay: MTT growth inhibition of K562 cells; assay type: cell-based; conditions: read-out: IC50 (μM) Tumor cells K562
# Description: as §1, §2, §3, §4, §5
# DU145 tumor cells = assay: MTT growth inhibition of DU145 cells, 72 h; assay type: cell-based, human; conditions: DU145, 72 h, MTT
# Description: DU145 cells were inoculated in RPM11640 medium containing 10% calf serum, incubated at 37° C., 5% CO2 in CO2 incubator, and passaged every 2-3 days. In this experiment, cells were grown in logarithmic growth phase.
# In the experiment, the cells at logarithmic growth phase were formulated into suspension, and the viability by trypan blue staining was more than 98%. The suspension was divided into several groups: 1 as blank control group (cell suspension); and 2 as experimental groups (cell suspension plus drugs).
# as §1, §2, §3
# [6] = test system: human lung adenocarcinoma cell line A549; assay: MTT growth inhibition of A549 cells; assay type: cell-based; conditions: read-out: IC50 (μM) Tumor cells A549
# Description: as §1, §2, §3, §4, §5
# [7] = test system: human hepatoma cell line 7701 QGY; assay: MTT growth inhibition of 7701 QGY cells; assay type: cell-based; conditions: read-out: IC50 (μM) Tumor cells 7701 QGY
# Description: as §1, §2, §3, §4, §5
# [8] = Homo sapiens, DU-145, 72 h, Table 6
# [9] = Homo sapiens, DU-145, 72 h, Table 5
Structure (SMILES),IC50 [1] [µM],IC50 [2] [µM],IC50 [4] [µM],IC50 [5] [µM],IC50 (DU145 tumor cells; Table 6) [µM],IC90 (DU145 tumor cells; Table 6) [µM],IC50 [6] [µM],IC50 [7] [µM],also measured
CCN1C(=O)/C(=C2\Nc3ccccc3\C2=N/O)c2cccnc21 [Compound 129],–,–,–,–,–,–,–,–,"IC50 ([1]; Homo sapiens, HepG2): 13 µM; IC50 ([2]; Homo sapiens, CCRF-CEM): 7 µM; solubility in Acetone [3]: slightly soluble; solubility in deionized water [3]: slightly soluble; solubility in ethanol [3]: slightly soluble; solubility in methanol [3]: soluble; solubility in petroleum ether (boiling range: 60~90° C.) [3]: insoluble; solubility in trichlormethane [3]: slightly soluble; change of lipid solubility [3]: decreased; change of water solubility [3]: increased; IC50 ([4]; Mus musculus): 4.2 µM; IC50 ([5]; Homo sapiens): 3.4 µM; IC50 (DU145 tumor cells; [8]): 3.8 µM; IC90 (DU145 tumor cells; [8]): 12 µM; IC50 ([6]; Homo sapiens): 14.1 µM; IC50 ([7]; Homo sapiens): 7.4 µM"
"CC(C)N1C(=O)C(=C2C(=O)Nc3ccccc32)c2cccnc21 [Compound 164, 1-isopropyl-7-azaisoindigo]",29,12.7,9.1,18.6,9.05,19,23.3,33.1,–
"CCN1C(=O)/C(=C2\Nc3ccccc3\C2=N/O)c2ccccc21 [Compound 91, 1-ethyl-indirubin-3′-oxime, reference compound]",–,–,–,–,–,–,–,–,solubility in Acetone [3]: easily soluble; solubility in deionized water [3]: insoluble; solubility in ethanol [3]: dissoluble; solubility in methanol [3]: slightly soluble; solubility in petroleum ether (boiling range: 60~90° C.) [3]: slightly soluble; solubility in trichlormethane [3]: easily soluble; change of lipid solubility [3]: increased; change of water solubility [3]: decreased; IC50 (DU145 tumor cells; [9]): 4.2 µM; IC90 (DU145 tumor cells; [9]): 21.8 µM; IC50 (DU145 tumor cells; [8]): 4.1 µM; IC90 (DU145 tumor cells; [8]): 22 µM
CN1C(=O)C(=C2Nc3ccccc3C2=NO)c2cccnc21 [Compound 128],12.6,10.5,3.6,7.7,2.7,7.1,10,7.6,–
CN1C(=O)C(=C2Nc3ccc(Cl)cc3C2=O)c2cccnc21 [Compound 102],41.5,7,18.2,9.5,8,18,22.8,39.5,–
CCCCN1C(=O)C(=C2Nc3ccccc3C2=O)c2cccnc21 [Compound 99],29.3,7.1,10.1,6.7,11.5,87,18.4,12.4,–
CC(C)N1C(=O)C(=C2Nc3ccc(Br)cc3C2=O)c2cccnc21 [Compound 105],32,8,11.9,19,8.1,28.5,24.1,13.4,–
CC(=O)OCC1OC(N2C(=O)C(=C3C(=O)Nc4ccccc43)c3cc(C)cnc32)C(OC(C)=O)C1OC(C)=O (centres unmarked) [Compound 158],18,12,8.3,5.8,10.5,49,22.3,44,–
CCCCN1C(=O)C(=C2C(=O)Nc3ccc(Br)cc32)c2cccnc21 [Compound 170],25,8.5,18.5,10.3,15,90,19.5,28,–
CN1C(=O)C(=C2C(=O)Nc3ccc(F)cc32)c2cccnc21 [Compound 154],29.3,9.8,12,19,43,> 100,12.4,36,–
CCN1C(=O)C(=C2Nc3ccc(Br)cc3C2=NO)c2cccnc21 [Compound 119],8.1,9,8.1,7.9,4,12,8.5,13.5,–
CC(C)N1C(=O)C(=C2Nc3ccc(Cl)cc3C2=O)c2cccnc21 [Compound 106],18,10.2,14,20.4,18.5,100,19.6,28,–
CN1C(=O)C(=C2Nc3ccc(Br)cc3C2=O)c2cccnc21 [Compound 101],28.8,12,23,7.8,11.5,60,21.6,15,–
"O=C1C(=C2C(=O)N(Cc3ccccc3)c3ncccc32)Nc2ccc(Br)cc21 [Compound 109, 1-benzyl-5′-bromo-7-azaindirubin]",21.2,9,18.6,12.5,7,24,15.8,10,–
CCN1C(=O)C(=C2C(=O)N(CC)c3ncccc32)c2cc(Br)ccc21 [Compound 160],31.1,10.8,15,10.2,14,61,29.1,25.4,–
COc1ccc2c(c1)C(=O)C(=C1C(=O)N(C)c3ncc(C)cc31)N2 [Compound 95],50.1,9,15.6,8.1,400,> 100,35.2,23.9,–

# Source: patent US8642765B2, “Azaindole-indole coupled derivatives, preparation methods and uses thereof” (priority 2007, dated 2014)
